Values quoted from earlier work, collected in US7235541B2, “Neurokinin antagonists for use as medicaments” (Astrazeneca AB, priority 2000, dated 2007).
Read-outs that look alike come from different tables or passages of the source. Peptide text beside a SMILES is read from it.

Key:
[1] = Light-dark box
[2] = Elevated plus-maze
[3] = Marmoset human intruder; Walsh et al., Psychopharmacology 1995
[4] = Forced swim test (depression model); only at 30 mg/kg bid; Vassout et al, Neuropeptides 1994
[5] = Stratton et al., Eur. J. Pharmacol. 1993
[6] = Teixeira et al., Eur J Pharmacol 1996
[7] = Walsh et al., Psychopharmacology 1995

Row | SMILES | Outcome [1, 5] | Outcome [2, 6] | Outcome [1, 7] | Outcome [3] | further results
1 | C[C@H](NC(=O)CNC(=O)C1CCCCC1)C(=O)N[C@H](Cc1c[nH]c2ccccc12)C(=O)N[C@@H](Cc1ccccc1)C(=O)N(C)C [GR100679] (HELM PEPTIDE1{[O=C(C1CCCCC1)[*:2]].G.A.[dW].F.[CN(C)[*:1]]}$$$$V2.0) | anxiolytic |  |  |  | 
2 | CC(=O)NC1(c2ccccc2)CCN(CC[C@H](CN(C)C(=O)c2ccccc2)c2ccc(Cl)c(Cl)c2)CC1 [SR48968] | anxiolytic | anxiolytic | anxiolytic | anxiolytic | 
3 | COC1(C[S@@+]([O-])c2ccccc2)CCN(CCc2c[nH]c3ccc(F)cc23)CC1 [GR159897] |  |  | anxiolytic | anxiolytic | 
4 | CN(Cc1ccccc1)C(=O)[C@H](Cc1ccc2ccccc2c1)NC(=O)[C@@H]1C[C@@H](O)CN1C(=O)c1cn(C)c2ccccc12 [FK888] |  | anxiolytic |  |  | 
5 | Cc1cc(C)cc(C(=O)N2CC[C@H](NCc3ccnc4ccccc34)C[C@H]2Cc2ccccc2)c1 [CGP 49823] |  |  |  |  | Outcome ([2]; Vassout et al, Neuropeptides 1994): inactive; Outcome (Social interaction test, Vassout et al, Neuropeptides 1994): anxiolytic; Outcome (Social interaction, File, Pharm Bio B 1997): anxiolytic; Outcome [4]: antidepressant
